In a melting point compilation (Tetko et al.; mined from patent text by program, amines drawn as free bases though some values may be those of a salt):

| Compound | melting point |
| --- | --- |
| COc1cc(Nc2nccc(-c3sc(N4C=CC=NC4)nc3C)n2)ccc1N1CCOCC1 | 212 to 214 °C |
| CCCc1cc(C#N)sc1-c1ccc2c(c1)C(C)(C)OC(=S)N2 | 174 to 175 °C |
| CC(C)c1ccc(-c2ccc(-c3cccc(C(=O)O)c3)o2)cc1 | 172 to 176 °C |
| CC(C)c1cc([N+](=O)[O-])ccc1OCC1CO1 (stereo not drawn) | 60 to 62 °C |
| CCN1CCc2cc(Nc3ncc(Cl)c(Nc4ccc(N5CCOCC5)cc4OC)n3)c(OC)cc2CC1=O | 212 to 214 °C |
| Cc1cc(C(=CNc2ccc(O)cc2)C(=O)c2ccccc2)on1 | 73 to 74 °C |
| CCOC(=O)c1c(C)nc(N2CCCCC2)c2nnn(CC)c12 | 45 to 47 °C |
| CC(C)(C)OC(=O)NC1COCCCC=CC2CC2(C(=O)NS(=O)(=O)C2CC2)NC(=O)C2CC(OC(=O)c3ccccc3)CN2C1=O (stereo not drawn) | 135 to 137 °C |
| COc1ccc(CN(C)CCCCCc2ccc(NC(=O)c3cccc4c(=O)c5cccc(F)c5[nH]c34)cc2)cc1OC | 130 °C |
| CCCc1nc(C)n2nc(C(=O)OCC)nc2c1Cc1ccc(-c2ccccc2C#N)cc1 | 108 °C |
| COC(=O)c1sc2ccccc2c1N=CN(C)C | 73 to 74 °C |
| COc1cc2c(cc1OC)-c1cc(OC)c(OC)cc1C2=Cc1ccnc2ccccc12 | 226 to 228 °C |
| CCOC(=O)c1c(OCc2ccc(-c3ccccc3-c3nnn(C(c4ccccc4)(c4ccccc4)c4ccccc4)n3)cc2)cc(C)nc1C | 136 to 138 °C |
| COC1(OC)SC=C(C)NC1=O | 86 to 88 °C |
| O=C1Nc2ccc(NCCCc3ccccc3)cc2C12OCCO2 | 106 to 108 °C |
| Cn1sc(Cl)c(Cl)c1=O | 119 to 120 °C |
| Nc1c(C(=O)c2ccncc2)[nH]c2cc(Cl)ccc12 | 266 to 267 °C |
| CC(C)(C)OC(=O)N1CCC(C(=O)c2nc3ccccc3n2Cc2ccc(F)cc2)CC1 | 114 to 115 °C |
| CCc1cc(C(=O)c2ccccc2Cl)c(-n2c(CNC(=O)c3cc4ccccc4[nH]3)nnc2-c2ccccc2)s1 | 230 to 232 °C |
| CC(C)(C)c1ccc(C(=O)Nc2cn3cc(C(F)(F)F)ccc3n2)cc1 | 234 to 235 °C |
| CCOc1ccc([N+](=O)[O-])c(C)c1 | 41 to 43 °C |
| CCC(CC)c1ccc(Cl)c2nc3n(c12)CCCCN3c1ccc(Cl)cc1Cl | 160 to 162 °C |
| COc1ccc(-n2c(-c3sc(NC(=O)c4ccccc4)nc3-c3ccccc3)nc3ccccc3c2=O)cc1 | > 275 °C |
| CCN1C(=O)CC(C)(C)c2ccc(-c3nc4ccccc4[nH]3)cc21 | 257 to 259 °C |
| COc1cccc([C@H]2O[C@H](CC(=O)Nc3nc(C)c(C(=O)O)s3)C(=O)N(CC(C)(C)CO)c3ccc(Cl)cc32)c1OC | 251 to 252 °C |

| Compound | melting point |
| --- | --- |
| O=C(c1cccnc1)c1cc(-c2ccc(Cl)cc2)c(N2CCOCC2)s1 | 114 °C |
| CC(C)c1nsc2ccc(-n3c(=O)cc(C(F)(F)F)n(C)c3=O)cc12 | 139 to 140 °C |
| O=C1CN(c2ccc(OC(F)(F)C(F)F)cc2)C(=O)CN1 | > 250 °C |
| COc1cccc(C2(C=O)CCNCC2)c1OC | 123 °C |
| O=c1oc(-c2ccc(C(F)(F)F)cc2)nn1Cc1cc(Cl)ccc1OP(=O)(O)O | 173 to 176 °C |
| CCS(=O)(=O)c1ccc(-c2nc(-c3nc4cc(OC)cc(OC)c4c(=O)[nH]3)ccc2OCCO)cc1 | 282 to 284 °C |
| CN(c1cccc2cc(-c3nccs3)[nH]c12)S(=O)(=O)c1ccsc1C(=O)O | 225 °C |
| CCc1cc(C=O)c(O)c(S(C)(=O)=O)c1 | 114 to 116 °C |
| COC(=O)C(C)(C)OCC#Cc1cc(C(F)(F)F)ccc1NS(=O)(=O)c1cc(C)cc(C)c1 | 128 to 130 °C |
| COc1cc2ncnc(N3CCc4ccc(Cl)cc43)c2cc1Cl | 226 °C |
| CCOC(=O)N1CCC(n2c(=O)[nH]c3ccc(C)cc32)CC1 | 222 to 224 °C |
| CCOC(=O)c1c(C)nc(C(C)C)c2nnn(CC)c12 | 55 to 57 °C |
| Cc1nc2ccccc2n1C | 102 °C |
| COc1cccc2c1nc(C(F)F)n2-c1nc(Nc2ccc(N(C)C)nc2)nc(N2CCOCC2)n1 | 136 to 137 °C |
| O=C(CC(c1ccccc1)c1ccccc1)Nc1ccccc1Cl | 181 °C |
| COC(=O)OCC1OC(n2cc(C)c(=O)[nH]c2=O)C(OC(=O)c2cccc(C(F)(F)F)c2)C1OS(C)(=O)=O (stereo not drawn) | 94 to 96 °C |
| CCn1nc(C)c2nc(C)nc(N3CC3)c21 | 66 to 69 °C |
| CN1[C@@H](c2cccc(I)c2)c2ccccc2S1(=O)=O | 156 °C |
| OC1CCc2c1cccc2-n1cccc1 (stereo not drawn) | 80 to 81 °C |
| N#CNC(=N)NCCCN1CCC(c2noc3cc(F)ccc23)CC1 | 178 to 181 °C |
| S=C(Nc1cnccc1NC1CCCCC1)NC1CCCCC1 | 157 to 159 °C |
| CCc1cc(CC)c(N)cc1N | 49 to 51 °C |
| CSc1ccc([N+](=O)[O-])cc1C(=O)OC(C)(C)C | 112 to 113 °C |
| COC(=O)Cn1c(C)cc(Cc2ccsc2)c(NC(=O)OCc2ccccc2)c1=O | 127 to 128 °C |
| O=C(c1ccccc1)C(O)c1ccc(Cl)c(Cl)c1 (stereo not drawn) | 204 to 209 °C |

| Compound | melting point |
| --- | --- |
| O=C1[C@H]2C[C@H](F)CN2C(=O)N1c1cc(NS(=O)(=O)CCl)c(Cl)cc1F | 147 to 151 °C |
| OCCCC(c1ccccc1)C(O)(c1ccccc1)c1ccccc1 (stereo not drawn) | 120 to 122 °C |
| CN(C(=O)C(Cl)(Cl)Cl)c1nc(C(Cl)(Cl)Cl)ns1 | 223 °C |
| CCCCCCCCCCCCCCCCCCOC(=O)c1ccccc1I | 35 °C |
| CN(C(=O)OC(C)(C)C)C1CCN(c2nc(N3CCOCC3)nc(-n3c(C(F)F)nc4c(O)cccc43)n2)CC1 | 220 to 222 °C |
| COC(=O)c1cc(Cl)sc1N | 99 to 101 °C |
| CC(C)(C)OC(=O)C=Cc1ccc(O)cc1C=NO | 146 to 149 °C |
| CC(O)c1nc2c(OCc3ccccc3)cccc2n1C (stereo not drawn) | 148 to 150 °C |
| CCn1ccc2c(ccc3[nH]cc(CCN)c32)c1=O | 224 to 227 °C |
| O=[N+]([O-])N(c1ccccc1)c1ccccc1 | 118 °C |
| Cc1cccc(Cl)c1Nc1ccccc1CC(N)=O | 139 to 141 °C |
| CS(=O)(=O)c1ccc(-c2cnn(CC(F)(F)F)c(=O)c2SCC(F)(F)F)cc1 | 155 to 158 °C |
| Cc1csc(C)c1NC(=O)CO | 85 to 87 °C |
| CC1=NNS(=O)(=O)c2sc(Cl)cc21 | 182 to 184 °C |
| Cc1ccc2nc(-c3ccccc3C#N)ncc2c1 | 174 to 176 °C |
| O=S(=O)(Nc1ccccc1Oc1cccc2cccnc12)c1ccc(F)cc1 | 243 to 244 °C |
| CC(C)c1cccc(C(C)C)c1NC(=O)C(Cc1ccccc1)NC(=O)NC(C)(C)C (stereo not drawn) | 241 to 242 °C |
| COc1cccc(C(=O)NCCc2ccc(-c3ccc(OC(C)(C)C(=O)O)cc3)cc2)c1OC | 184 °C |
| N#Cc1ccc2sc(CO)cc2c1 | 78 to 79 °C |
| COc1ccc(C(=O)N2CC[C@H](O)C2=O)cc1OCc1ccccc1 | 166 to 167 °C |
| COC(=O)c1ccc(-c2nnc(-c3ccc(C(F)(F)F)cc3)o2)c([N+](=O)[O-])c1 | 173 to 174 °C |
| CCOC(=O)c1c(N)sc2c1CCN(CCCc1ccccc1)C2 | 108 to 110 °C |
| Clc1ccc2ncc(Cl)n2n1 | 120 to 121 °C |
| CCC(CCOc1ccc(-c2ccc(C(=O)O)cc2)cc1-c1ccc2c(c1)C(C)(C)CCC2(C)C)NC1CC1 (stereo not drawn) | 161 °C |
| O=C(NS(=O)(=O)NCCc1cccs1)OCc1ccccc1 | 129 to 131 °C |

| Compound | melting point |
| --- | --- |
| C=C(C(=O)NS(=O)(=O)c1cccc(C#N)c1)c1ccc(OCCOC)cc1Oc1ncc(C(F)(F)F)cc1Cl | 195 to 197 °C |
| O=C(NCCO)c1cc(-c2ccnc(Nc3cccc(OC(F)(F)C(F)F)c3)n2)ccn1 | 159 °C |
| CCc1cc(C2(c3ccc(F)c(-c4cncc(F)c4)c3)N=C(N)N(C)C2=O)cc(CC)n1 (stereo not drawn) | 155 to 157 °C |
| O=C(O)Cc1ccc(SCCNC(=O)C2Cc3ccccc3N2S(=O)(=O)c2ccc(-c3cccc(C(F)(F)F)c3)cc2)c(Cl)c1 (stereo not drawn) | 70 °C |
| O=C(OCC1c2ccccc2-c2ccccc21)N1CCC(n2nc(-c3ccccc3)[nH]c2=O)CC1 | 142 °C |
| CCCCCCC(=Cc1ccc(-c2nnn[nH]2)cc1)C(OC)=C1SC(=S)NC1=O | > 300 °C |
| CSc1cc(C)nc(SC)c1NC(=O)CCCSc1nc2ccccc2o1 | 149 to 150 °C |
| O=C(NCC1CCCCC1)c1c(Cl)ccc2nc(N3CCC[C@@H]3C(=O)O)ccc12 | 157 to 160 °C |
| N#Cc1cccn1-c1cccc(C(=O)N=C(N)N)c1 | 136 to 138 °C |
| C#CC[C@H](c1nc2cc(Cl)ccc2c(=O)n1Nc1ccccc1)N(CCCN)C(=O)c1cccc(F)c1F | 168 to 170 °C |
| COc1ccccc1N1CCN(CC(O)COc2ccccc2C=C=O)CC1 (stereo not drawn) | 116 to 118 °C |
| CCO[C@H]1c2ccc3c(nc(C)n3C)c2N[C@H](c2ccccc2)[C@H]1O | 170 °C |
| COc1ccc2[nH]cc(-c3cc4c(C(N)=O)ccnc4[nH]3)c2c1 | > 320 °C |
| CC(Cc1ccc(C(C)(C)C)cc1)C[N+]1([O-])CC(C)OC(C)C1 (stereo not drawn) | 115 to 118 °C |
| COC(=O)c1ccc2c(C(=O)c3ccccc3)c(C(=O)OC)ccc2c1 | 84 °C |
| O=C(O)CCC(=O)c1ccc([N+](=O)[O-])c(O)c1 | 158 to 160 °C |
| CCOc1cc(N)c(Cl)cc1C(=O)NC[C@H]1CN(CC2CCN(C(=O)N3CCC3)CC2)CCO1 | 166 to 168 °C |
| CC(C)(C)c1cc(SCN2CCN(CSc3cc(C(C)(C)C)c(O)c(C(C)(C)C)c3)C2=O)cc(C(C)(C)C)c1O | 173 to 176 °C |
| ClCCNc1ccnc2cc(Cl)ccc12 | 239 to 240 °C |
| CC(=O)Nc1cccc2c(OC(C)=O)c(S(=O)(=O)NC(C)(C)C)ccc12 | 203 to 206 °C |
| CCCCCCCCNC(=O)NCCCCC | 65 to 65.5 °C |
| Cc1ccc(C(O)C2OC(n3cc(C)c(=O)[nH]c3=O)CC2(O)c2ccc(C)cc2)cc1 (stereo not drawn) | 194 to 196 °C |
| COC(=O)NC(=N)CC(C)C | 82 to 86 °C |
